Experimental data from patent publication US20260265298A1, “PEPTIDE SUBSTRATES AND INHIBITORS OF CATHEPSIN B” (The Regents of the University of California, priority 2023, published 2026).

Legend:
[1] = molecular target: T1, cathepsin B (Mus musculus, UniProt P10605); assay: Cathepsin B activity in ipsilateral brain cortex of TBI mice; format: in vivo; settings: 20 mg/kg, ip; day 6 after TBI
T1 construct: from tissue; host or cells: mouse ipsilateral brain cortex (homogenate and cytosol) after controlled cortical impact TBI
Protocol: (§1) FIGS. 13a-13e show traumatic brain injury (TBI) in mice results in elevated brain cathepsin B activity, involved in motor deficit. […] Mice were subjected to the controlled cortical impact (CCI) model of TBI. Motor function was assessed by the rotarod assay on days 1, 3, and 7 after TBI. Control sham mice received surgery of the scalp but no TBI. Rotarod data are shown as mean+SD (n=5/group, mean+sem, *p<0.05, student's t-test). […] The TBI injury was conducted on the ipsilateral side of the brain cortex, shown by the tissue lesion at the site of TBI impact. […] Cathepsin B activity in homogenate of mouse brain cortex was measured with the Z-Nle-Lys-Arg-AMC substrate on day 6 after TBI. These TBI mice were treated with vehicle or Z-Arg-Lys-AOMK inhibitor (20 mg/kg, ip). (n=6 per group for vehicle-treated, and n=4 per group for treatment with inhibitor Z-Arg-Lys-AOMK; mean+sem, p<0.05, student's t-test).
Cytosol from brain homogenate (obtained on day 6 after TBI) was isolated by differential density centrifugation. Cathepsin B in the cytosol from brain cortex was measured by the substrate Z-Nle-Lys-Arg-AMC substrate. (n=6 per group for vehicle treated, and n=4 per group for treatment with inhibitor Z-Arg-Lys-AOMK: mean+sem, p<0.05, student's t-test).

[2] = tested on: TBI mice; assay: Rotarod motor function in controlled cortical impact (CCI) model of TBI; format: in vivo, mouse; settings: 20 mg/kg, ip, one day before TBI, day of TBI and day 1 after; measured day 1 after TBI
Protocol: as §1
TBI mice were treated with Z-Arg-Lys-AOMK inhibitor (20 mg/kg, ip) one day before TBI, on the day of TBI, and on day 1 after TBI. Motor function was measured on day 1 after TBI. (n=6 per group for vehicle-treated, and n=4 per group for treatment with inhibitor Z-Arg-Lys-AOMK; mean+sem, p<0.05, student's t-test).

[3] = tested on: mouse BV2 microglia cells; assay: Cell death (LDH release) induced by low nutrient stress in microglia cells; format: cell-based; settings: 2 μM; 0% FBS for 24 hours
Protocol: (§2) Regulation of cathepsin B activity during cell death induced by low nutrient stress in microglia cells. […] Microglia cells (mouse BV2 cells) were treated with low nutrient culture media (0% fetal bovine serum, FBS) compared to a normal nutrient condition (10% FSB) for 24 hours. The low nutrient stress condition induced cell death monitored by LDH (lactate dehydrogenase) released into the culture media. The stress-induced increase in cell death was reduced by the inhibitor Z-Arg-Lys-AOMK (2 μM), a selective inhibitor of cathepsin B. (n=6, mean+sem, *p<0.05, student's t-test). […] Cathepsin B activity was elevated in cytosol isolated from microglia cells after treatment with low nutrient stress (0% FBS) for 24 hours. Cathepsin B activity was measured with the specific substrate Z-Nle-Lys-Arg-AMC ([…] in assay). Furthermore, the increase in cytosolic cathepsin B activity was blocked by the cathepsin B inhibitor Z-Arg-Lys-AOMK (2 μM) during low nutrient stress. (n=6, mean+sem, *p<0.05, student's t-test).

[4] = molecular target: T1, cathepsin B; assay: Cytosolic cathepsin B activity in microglia cells during low nutrient stress; format: cell-based; settings: 2 μM; 0% FBS for 24 hours; substrate Z-Nle-Lys-Arg-AMC
Protocol: as §2

T1 sequence (P10605 80-333): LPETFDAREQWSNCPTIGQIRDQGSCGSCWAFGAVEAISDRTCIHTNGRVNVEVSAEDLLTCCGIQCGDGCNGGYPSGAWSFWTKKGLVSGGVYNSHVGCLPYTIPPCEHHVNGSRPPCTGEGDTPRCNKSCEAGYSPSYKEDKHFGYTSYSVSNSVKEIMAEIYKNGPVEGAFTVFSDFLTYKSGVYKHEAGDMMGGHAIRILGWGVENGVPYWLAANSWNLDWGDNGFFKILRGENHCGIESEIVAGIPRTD

Substance: Z-Arg-Lys-AOMK
- cathepsin B activity in brain cortex cytosol [1]: inhibition of cathepsin B activity
- cathepsin B activity in brain cortex homogenate [1]: inhibition of cathepsin B activity
- motor deficit (rotarod) [2]: improved motor deficit
- stress-induced increase in cell death (LDH released into the culture media) [3]: reduced
- increase in cytosolic cathepsin B activity [4]: blocked
